Assay results from patent US8299096B2, “Method for treating pulmonary diseases using rho kinase inhibitor compounds” (priority 2008, dated 2012).
pKi: −log10 of the molar value. Like-named read-outs stand apart in the source and are kept apart here.

Tests used:
[1] = Compound plasma concentrations in mice at 15 min post administration; assay type: in vivo, mouse; details: for concentration at 15 min: mouse
Protocol: Additionally, compound concentrations were determined in the plasma and lungs of male, ovalbumin-sensitized, Balb/c mice from a murine model of asthma. Test compounds were formulated in water or 1% polysorbate 80 and dosed at 15 μmol/kg for intraperitoneal (IP) or oral (PO) administration or formulated for intratracheal (IT) administration and dosed at 5 μmol/kg, which directly targets the lungs. Following completion of the in vivo study, mice were euthanized and blood and plasma collected approximately 2.5-3 hours post administration of test compound for bronchodialator (BD) studies and 24 hours post administration for anti-inflamatory (AI) studies. Lungs were homogenized in Matrix A lysing tubes using a FastPrep 24 tissue and cell homogenizer (MP Biomedicals, Solon, Ohio). Both plasma samples and lung extracts were assayed for compound concentrations using an on-line, solid phase extraction LC/MS/MS system.

p70S6K = molecular target: T1, p70S6K (Homo sapiens, UniProt P23443, T412E); test: p70S6K inhibition assay (IMAP); assay type: biochemical
T1 construct: purchased Upstate Chemicon 14-486
T1 sequence (P23443 1-421 T412E limits assumed): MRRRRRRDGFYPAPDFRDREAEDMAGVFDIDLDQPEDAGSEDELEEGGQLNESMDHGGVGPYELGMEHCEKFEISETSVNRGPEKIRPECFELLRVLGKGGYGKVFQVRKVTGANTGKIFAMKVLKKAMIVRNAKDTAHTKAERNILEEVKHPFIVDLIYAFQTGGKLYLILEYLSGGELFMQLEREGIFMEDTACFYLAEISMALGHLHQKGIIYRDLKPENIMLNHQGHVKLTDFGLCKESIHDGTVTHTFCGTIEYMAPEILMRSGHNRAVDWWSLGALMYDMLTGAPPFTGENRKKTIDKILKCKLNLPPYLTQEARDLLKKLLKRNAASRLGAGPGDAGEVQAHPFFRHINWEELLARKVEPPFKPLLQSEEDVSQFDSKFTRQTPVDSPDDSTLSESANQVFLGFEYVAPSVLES
Protocol: Inhibition of Akt3 and p70S6K activity was determined using the IMAP™ FP Progressive Binding Kit (Molecular Devices product number R8127). […] Following the pre-incubation, 30 M ATP was added to initiate the reaction. After 60 minutes at RT, Molecular Devices IMAP™ binding solution was added to bind phosphorylated substrate. After 30 minutes of incubation in the presence of the IMAP™ beads the fluorescence polarization was read and the ratio was reported as mP. IC50 results were calculated using the Prism software from Graphpad. The Ki values were determined according to the following formula: Ki=IC50/(1+([ATP Challenge]/EC50 ATP)).

ROCK1 = molecular target: T2, ROCK1 (Homo sapiens, UniProt Q13464); test: Rho kinase inhibition assay (IMAP), ROCK1; assay type: biochemical
T2 construct: purchased Upstate/Chemicon 14-601
T2 sequence (Q13464 17-535 limits assumed): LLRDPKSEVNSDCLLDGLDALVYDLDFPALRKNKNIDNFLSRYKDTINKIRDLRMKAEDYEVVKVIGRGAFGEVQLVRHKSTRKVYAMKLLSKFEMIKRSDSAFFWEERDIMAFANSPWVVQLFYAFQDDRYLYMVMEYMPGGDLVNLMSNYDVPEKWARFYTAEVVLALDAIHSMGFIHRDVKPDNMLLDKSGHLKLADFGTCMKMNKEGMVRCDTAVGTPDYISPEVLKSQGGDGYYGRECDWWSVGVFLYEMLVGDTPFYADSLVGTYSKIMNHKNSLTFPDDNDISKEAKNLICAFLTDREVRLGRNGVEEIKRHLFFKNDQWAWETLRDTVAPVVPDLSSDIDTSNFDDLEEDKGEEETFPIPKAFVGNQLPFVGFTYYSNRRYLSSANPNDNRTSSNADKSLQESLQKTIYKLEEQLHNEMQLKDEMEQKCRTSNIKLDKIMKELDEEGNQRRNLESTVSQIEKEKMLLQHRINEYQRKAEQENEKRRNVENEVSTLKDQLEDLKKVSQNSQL
Protocol: Following the pre-incubation, 10 μM ATP was added to initiate the reaction. After 60 minutes at room temperature, Molecular Devices IMAP™ binding solution was added to bind phosphorylated substrate. After 30 minutes of incubation in the presence of the IMAP™ beads, the fluorescence polarization was read and the ratio was reported as mP. IC50 values for compounds and EC50 values for ATP were calculated using the Prism software from Graphpad.

GCK = molecular target: T3, GCK (Homo sapiens, UniProt Q12851); test: Kinase panel screen, GCK; assay type: biochemical; details: 1 μM test compound, 10 μM ATP
T3 construct: purchased Upstate, Millipore Bioscience Division (KinaseProfiler service)
T3 sequence (Q12851 1-820): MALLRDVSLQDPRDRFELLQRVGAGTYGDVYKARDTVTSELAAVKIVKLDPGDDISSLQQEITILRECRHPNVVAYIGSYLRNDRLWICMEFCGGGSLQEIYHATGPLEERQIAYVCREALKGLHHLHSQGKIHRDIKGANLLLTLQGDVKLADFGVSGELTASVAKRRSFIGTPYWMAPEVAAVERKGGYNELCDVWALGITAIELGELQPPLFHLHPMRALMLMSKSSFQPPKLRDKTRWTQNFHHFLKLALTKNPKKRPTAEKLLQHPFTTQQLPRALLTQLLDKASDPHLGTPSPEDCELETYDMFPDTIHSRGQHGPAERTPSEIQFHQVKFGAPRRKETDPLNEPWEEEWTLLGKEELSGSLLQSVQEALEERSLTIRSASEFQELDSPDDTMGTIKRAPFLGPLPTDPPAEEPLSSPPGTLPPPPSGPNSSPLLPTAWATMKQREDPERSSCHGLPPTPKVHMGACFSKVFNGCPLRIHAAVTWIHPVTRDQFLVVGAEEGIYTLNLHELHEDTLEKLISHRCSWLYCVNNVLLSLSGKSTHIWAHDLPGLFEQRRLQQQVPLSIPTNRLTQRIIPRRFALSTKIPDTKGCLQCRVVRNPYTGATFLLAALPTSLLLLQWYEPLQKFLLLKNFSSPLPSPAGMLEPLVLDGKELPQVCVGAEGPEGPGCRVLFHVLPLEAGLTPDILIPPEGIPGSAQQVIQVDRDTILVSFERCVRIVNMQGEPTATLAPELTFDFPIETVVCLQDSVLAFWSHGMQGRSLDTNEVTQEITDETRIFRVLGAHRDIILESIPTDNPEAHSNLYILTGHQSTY
Protocol: (§1) Compounds of Formulae I and II were examined for activity against a selected panel of kinases using the KinaseProfiler™ enzyme profiling services (Upstate, Millipore Bioscience Division). Percent kinase activity at 10 μM and 1 μM test compound and 10 μM ATP was determined against 40 wild-type recombinant human kinases according to Upstate's standard protocol: ASK1, BTK, CSK, c-RAF, GCK, GSK3β, IKKα, IKKβ, IRAK1, IRAK4, JNK1α1, JNK2α2, JNK3, ERK1, ERK2, MAPKAP-K2, MAPKAP-K3, MEK1, MKK4, MKK6, MKK7β, Mnk2, MSK1, PAK3, PDK1, PRAK, ROCK1, Rsk2, SAPK2a, SAPK2b, SAPK3, SAPK4, SRPK1, SRPK2, Syk, TAK1, TBK1, PI3-Kβ, PI3-Kγ, PI3-Kδ.

Mnk2 = molecular target: T4, Mnk2 (Homo sapiens, UniProt Q9HBH9); test: Kinase panel screen, Mnk2; assay type: biochemical; details: 10 μM ATP
T4 construct: purchased Upstate, Millipore Bioscience Division (KinaseProfiler service)
T4 sequence (Q9HBH9 whole entry): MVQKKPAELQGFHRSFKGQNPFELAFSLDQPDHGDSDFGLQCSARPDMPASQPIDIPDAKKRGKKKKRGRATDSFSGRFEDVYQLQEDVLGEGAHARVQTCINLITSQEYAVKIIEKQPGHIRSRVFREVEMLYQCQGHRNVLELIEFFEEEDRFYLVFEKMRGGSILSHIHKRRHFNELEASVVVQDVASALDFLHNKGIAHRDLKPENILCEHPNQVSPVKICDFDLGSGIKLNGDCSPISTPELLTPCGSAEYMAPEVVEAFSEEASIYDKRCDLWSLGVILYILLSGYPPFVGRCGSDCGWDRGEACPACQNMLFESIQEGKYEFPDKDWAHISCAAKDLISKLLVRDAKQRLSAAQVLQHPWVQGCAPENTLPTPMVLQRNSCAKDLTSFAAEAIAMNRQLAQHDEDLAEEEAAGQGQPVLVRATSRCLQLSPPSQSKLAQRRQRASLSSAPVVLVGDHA
Protocol: as §1

IRAK1 = molecular target: T5, IRAK1 (Homo sapiens, UniProt P51617); test: Kinase panel screen, IRAK1; assay type: biochemical; details: 10 μM ATP
T5 construct: purchased Upstate, Millipore Bioscience Division (KinaseProfiler service)
T5 sequence (P51617 whole entry): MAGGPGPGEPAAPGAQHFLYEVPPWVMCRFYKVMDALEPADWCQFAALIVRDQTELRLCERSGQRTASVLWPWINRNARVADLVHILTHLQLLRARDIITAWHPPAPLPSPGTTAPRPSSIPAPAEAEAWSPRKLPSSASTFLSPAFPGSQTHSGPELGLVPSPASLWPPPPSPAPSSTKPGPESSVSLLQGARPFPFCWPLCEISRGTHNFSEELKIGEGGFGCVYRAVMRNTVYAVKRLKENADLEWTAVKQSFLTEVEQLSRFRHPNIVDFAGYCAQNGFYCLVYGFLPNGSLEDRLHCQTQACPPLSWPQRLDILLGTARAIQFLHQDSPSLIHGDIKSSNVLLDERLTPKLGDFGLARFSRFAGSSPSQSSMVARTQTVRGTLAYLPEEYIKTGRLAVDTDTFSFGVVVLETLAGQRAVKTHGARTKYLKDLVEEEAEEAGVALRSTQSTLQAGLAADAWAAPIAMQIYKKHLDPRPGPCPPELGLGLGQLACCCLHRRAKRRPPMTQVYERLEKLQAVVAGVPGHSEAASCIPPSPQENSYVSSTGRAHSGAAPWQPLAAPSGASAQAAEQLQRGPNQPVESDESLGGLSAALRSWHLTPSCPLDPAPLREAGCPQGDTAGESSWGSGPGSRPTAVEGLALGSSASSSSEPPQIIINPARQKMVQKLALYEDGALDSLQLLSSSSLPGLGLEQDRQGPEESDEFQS
Protocol: as §1

[2] = tested on: ovalbumin-sensitized mice; test: Prevention of airway hyperreactivity development, anti-inflammatory dosing paradigm (Penh); assay type: in vivo, mouse
rat tracheal rings = test: Tracheal relaxation assay, carbachol precontracted rings
Protocol: Trachea were excised, cleaned of connective tissue and cut into cylindrical segments of 2-3 mm length. Two stainless steel wires were guided through the lumen of the tracheal ring. One wire was fixed in the tissue bath and the other was connected to a force transducer via surgical silk. […] Indomethacin (1 μM), a cyclooxygenase inhibitor, was added to the Krebs buffer and was present throughout the experiments. Contractile tensions were measured using an isometric force transducer (Grass Instruments) and signals were analyzed using specialized software (Chart v5.5, ADInstruments). The preparations were allowed to equilibrate at a resting tension of 0.3 to 0.5 gm prior to two challenges with 60 mM KCl to assess tissue viability. After washing, tissues were treated with 1 μM carbachol for 10 to 15 minutes to induce a contractile response. Test Compounds were added cumulatively to the bath every 30 minutes and reductions in tension were recorded. Basal tension was subtracted from all values and data were reported as a percentage of the maximal carbachol-induced contraction. Data were fit to the Hill equation using GraphPad Prism v5 software.

[3] = tested on: ovalbumin-sensitized mice; test: Bronchodilator assay in ovalbumin-sensitized mouse model of asthma (Penh); assay type: in vivo; details: for Reduction in airway hyperresponsivness: oral doses
Protocol: Male BALB/c mice were ordered from Charles River Laboratories (Raleigh, N.C.). The animals were approximately 19 to 21 grams at time of receipt. Upon arrival, the animals were randomized into groups of five males per cage and assigned to a dosing group. Animals were quarantined for 7 days under test conditions. They were observed daily for general health status and ability to adapt to the water bottles.
Animals were sensitized on day 0 and 14 of study by an intraperitoneal injection with 20 μg of ovalbumin (ova) and 2.0 mg aluminum hydroxide (alum) which initiates the development of a specific T-helper (Th) cells type 2 resulting in asthmatic animals. One group of animals received an injection of saline to use as non-asthmatic control animals. All animals were challenged with aerosolized 1% ova once daily for 25 minutes on days 28, 29, and 30 (Zosky, et al. Respiratory Research, 2004; 5:15). Aerosol challenge consists of using an Aerogen Aeroneb nebulizer and controller with a particle size of 4-6 μm mass median aerodynamic diameter (MMAD) with a distribution of 400 μl per minute. This aerosol challenge is necessary to target the Th2-driven allergic inflammation in the lower airways.
The test compounds and the control vehicle were administered to animals on the day of airway hyperreactivity evaluation 30 minutes to 1 hour before the evaluation to determine the bronchodilator effects of the compounds according to the bronchodilator dosing paradigm (FIG. 3A). Compounds were administered p.o. (orally), i.p. (intraperitoneally) at 15 μMol/kg unless otherwise noted (Table 4). Alternatively, compounds were administered i.t. (intratracheally) at varying doses as shown (FIG. 3B). On day 32 of the experiment, airway hyperreactivity was evaluated by placing conscious, unrestrained animals in a whole body plethysmometer (Buxco Wilmington, N.C.) and exposing them to escalating doses of nebulized methacholine, a known bronchial constrictor which acts through the muscarinic receptors of the lungs, (doses: […]-50 mg/ml). Exposure to the methacholine doses consisted of a 3 minute period during which a nebulizer was aerosolizing the methacholine and an additional 3 minute period following the cessation of nebulization. Over this 6 minute period, the plethysmometer monitors and generates numerical values for all parameters of the breath pattern. Enhanced pause (Penh), a unitless index of airway hyperreactivity, is derived from the expiratory side of the respiratory waveform measured via the plethysmograph and is used as an indirect measure of airway resistance and hyperreactivity. […] Following the methacholine dose response, all animals were anesthetized, bled and euthanized.
Within each experiment, a mouse was given a single compound and exposed to increasing doses of methacholine [0 (baseline), 0.375, 0.75, 1.5, 3, 6, 12, 25, 50 mg/ml]. The Penh value at each of the dose levels of methacholine represents the 6-minute average response. Change from baseline (CFB) in Penh was calculated at each methacholine dose and the area under the curve (AUC) for these CFB values was calculated using the trapezoidal rule. This same approach was applied for each mouse across multiple experiments.
For statistical analyses, a linear mixed-effects model where the response was the log 10 transformed value of AUC described above was used. Data from equal experimental conditions across experiments performed on different days were pooled for statistical analysis and data reporting. The various compounds were compared adjusting for the log 10-transformed baseline value of Penh and the chamber (1 of 10) of the plethysmometer each mouse was contained in during an experiment. A random intercept for each experiment was assumed to account for possible similarities of the results obtained from a given experiment (i.e., as a “blocking effect”).
For Table 4 and Table 5, Penh values are reported as log 10 transformed AUC values. […]

[4] = Rat oral pharmacokinetics (plasma); assay type: in vivo
Protocol: Plasma (EDTA K2 anticoagulant) was collected from male, cannulated, CD Sprague Dawley rats to determine the pharmacokinetics of formulations containing compound inhibitors of Rho kinase. Each animal was dosed orally with a 4 ml/kg solution or suspension of each test compound in 10 mM acetate buffered saline, pH 4.5 at a final concentration range of 20-30 μmol/kg. Blood was collected at 0.25, 0.5, 1, 2, 4, 6, 8, and 24 hours. Plasma samples were assayed for the concentration of the test compound using an on-line, solid phase extraction LC/MS/MS analysis system.
Samples were analyzed on a QSTAR Elite, hybrid quadrupole time-of-flight mass spectrometer (Applied Biosystems, Framingham, Mass.) coupled with a Symbiosis Pharma integrated, on-line SPE-HPLC system (Spark Holland Inc., Plainsboro, N.J.). Analyst QS 2.0 software was used for instrument control, data acquisition and processing. […] Mobile Phase A consisted of 0.1% ammonium hydroxide in water and Mobile Phase B consisted of 0.1% formic acid in acetonitrile. Pharmacokinetic analyses were performed using WinNonlin software version 5.2 (Pharsight Corporation, Mountain View, Calif.).

[5] = tested on: ovalbumin-sensitized mice; test: Anti-inflammatory assay in ovalbumin-sensitized mouse model of asthma (BALF cells and cytokines); assay type: in vivo; details: dosed orally to day 31, anti-inflammatory dosing paradigm
From the text: Mouse model of asthma via ovalbumin sensitization was created as described in Example 5. The anti-inflammatory dosing paradigm (FIG. 4) was utilized to evaluate the anti-inflammatory effects of experimental compounds. The anti-inflammatory dosing paradigm consists of dosing the animals once a day starting on day 27 and finishing on either day 30 or 31 (1 hr prior to the aerosolized ovalbumin challenges on days 28 to 30) but not on day 32 when hyper-reactivity evaluation occurs.
Bronchoalveolar lavage fluid (BALF) was collected by infusing 3.0 ml of saline with 10% fetal calf serum into the lungs via the trachea and then withdrawing the fluid. The total amount of cells/ml of BALF fluid was determined via manual cell count on hemocytometer. The BALF was centrifuged, supernatant removed and analyzed for cytokine concentrations as described below, and cell pellet reconstituted in 500 μL of fluid. Cytospin slides were prepared from the cell pellet using 100 μL of fluid and spinning samples for 5 minutes at 5000 rpms in a cytospin centrifuge. Following Hema3 stain, relative percentages of individual leukocytes were determined on a 200 cell count for each sample. The final concentration of individual leukocyte cell types per ml of BALF was determined by multiplication of the relative percentage of individual leukocytes with the total amount of cells/ml of BALF fluid.
The concentrations of cytokines in the BALF samples were determined using commercially available Bio-plex kits (Bio-Rad) for the detection of mouse IL-5, IL-13, and Eotaxin. The analysis of cytokine levels was measured using the Bio-Plex 200 (Bio-Rad) system according to the manufacturer's instructions.

IRAK4 = molecular target: T6, IRAK4 (Homo sapiens, UniProt Q9NWZ3); test: Kinase panel screen, IRAK4; assay type: biochemical; details: 10 μM ATP
T6 construct: purchased Upstate, Millipore Bioscience Division (KinaseProfiler service)
T6 sequence (Q9NWZ3 1-460): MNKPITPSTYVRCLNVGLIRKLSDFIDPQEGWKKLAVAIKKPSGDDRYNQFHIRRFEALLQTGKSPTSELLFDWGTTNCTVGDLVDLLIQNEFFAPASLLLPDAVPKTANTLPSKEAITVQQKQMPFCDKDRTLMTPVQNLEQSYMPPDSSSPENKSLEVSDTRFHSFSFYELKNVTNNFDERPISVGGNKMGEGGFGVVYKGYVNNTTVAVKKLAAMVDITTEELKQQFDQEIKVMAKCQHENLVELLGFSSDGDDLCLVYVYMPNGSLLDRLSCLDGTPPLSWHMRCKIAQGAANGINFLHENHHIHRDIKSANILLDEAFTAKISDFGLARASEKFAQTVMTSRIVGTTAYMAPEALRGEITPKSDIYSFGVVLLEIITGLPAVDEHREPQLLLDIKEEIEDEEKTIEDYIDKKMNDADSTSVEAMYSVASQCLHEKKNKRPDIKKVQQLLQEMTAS
Protocol: as §1

[6] = Balb/c, 15 μmol/kg, mean compound plasma concentration in mice at 15 minutes post oral administration, read-out: Mouse Oral PK
[7] = mice, plasma, 15 min post administration (oral dosing), mean of n = 3 mice, read-out: Plasma Mean Concentration
[8] = IMAP FP, human enzyme, Ki=IC50/(1+([ATP Challenge]/EC50 ATP)), read-out: p70S6K Ki, Avg
[9] = average Ki (Example 31), read-out: p70S6K Ki
[10] = read-out: ROCK1 Ki, average Ki (Example 1)
[11] = rat, oral, 20-30 μmol/kg, plasma, mean n = 3

SMILES: Cc1ccc(CN2CCC[C@@H](Nc3ccc4[nH]ncc4c3)C2)cc1NS(=O)(=O)N(C)C [Compound 1.262]
- concentration at 15 min [1, 6]: 285 nM
- concentration at 15 min [1, 7]: 285 nM
- pKi (p70S6K; [8]): 5.26
- pKi (p70S6K; [9]): 5.26
- pKi (ROCK1): 7.26
- pKi (ROCK1; [10]): 7.26

SMILES: OCCn1ccc2cc(CN3CC[C@@H](Nc4cccc5cnccc45)C3)ccc21 [Compound 2.066]
- percent inhibition at 1 µM (GCK): 39%
- Percent inhibition, Mnk2 (Mnk2; 1 μM test compound): 99%
- Percent inhibition, Mnk2 (Mnk2; 10 μM test compound): 54%
- Percent inhibition, IRAK1 (IRAK1; 1 μM test compound): 74%
- Percent inhibition, IRAK1 (IRAK1; 10 μM test compound): 32%
- Prevention of airway hyperreactivity ([2]; intratracheal, once a day, days 27 to 30 (1.091) or 27 to 31): prevention of airway hyperreactivity

SMILES: Cc1ccc(CN2CCC[C@H](Nc3ccc4[nH]ncc4c3)C2)cc1NS(=O)(=O)N(C)C [Compound 1.237]
- concentration at 15 min [1, 6]: 178 nM
- concentration at 15 min [1, 7]: 178 nM
- pKi (p70S6K; [8]): 5.01
- pKi (p70S6K; [9]): 5.01
- pKi (ROCK1): 6.54
- pKi (ROCK1; [10]): 6.54

SMILES: CCc1ccc(CN2CCC[C@@H](Nc3ccc4[nH]ncc4c3)C2)cc1 [Compound 1.136]
- Trachael Ring Contraction (rat tracheal rings; average percentage of carbachol-induced rat trachael ring contraction at 1 μM of test compound): 45%
- Reduction in airway hyperresponsiveness ([3]; i.p. route of administration, compared to oral dosing): enhanced reduction
- Reduction in airway hyperresponsivness [3]: did not yield a significant reduction
- Oral bioavailability ([4]; oral dosing): poor
- AUC (0-last) [4, 11]: below the level of quantification
- Cmax [4, 11]: below the level of quantification

SMILES: c1cc2cc(CN3CCC[C@@H](Nc4ccc5[nH]ncc5c4)C3)ccc2o1 [Compound 1.131]
- Prevention of airway hyperreactivity to metacholine on Day 32 ([2]; oral, 15 μMol/kg once a day during days 27 to 31): prevention of airway hyperreactivity
- Detection in mouse plasma 15 minutes after oral dosing ([1]; mouse plasma, 15 minutes, oral): readily detectable
- Airway eosinophil infiltration (eosinophils per ml of BALF) [5]: reduced
- Reduction in airway hyperresponsivness [3]: statistically significant reduction

SMILES: O=S(=O)(c1cccc2cnccc12)N1CCCNCC1 [fasudil]
- Percentage of carbachol-induced contraction at 10 μM compound, Avg % (rat tracheal rings; 10 μM compound, 1 μM carbachol precontracted rat trachea rings): least efficacious
- IC50, tracheal ring relaxation (rat tracheal rings; carbachol precontracted tissue): could not be obtained

SMILES: NC(=O)Cn1ccc2cc(CN3CCC[C@@H](Nc4ccc5[nH]ncc5c4)C3)ccc21 [Compound 1.162]
- Percent inhibition, IRAK4 (IRAK4; 1 μM test compound): 105%
- Percent inhibition, IRAK4 (IRAK4; 10 μM test compound): 88%
- percent inhibition at 1 µM (GCK): 93%
- Percent inhibition, Mnk2 (Mnk2; 1 μM test compound): 111%
- Percent inhibition, Mnk2 (Mnk2; 10 μM test compound): 65%
- Percent inhibition, IRAK1 (IRAK1; 1 μM test compound): 100%
- Percent inhibition, IRAK1 (IRAK1; 10 μM test compound): 97%
